{"source": "patent US20090060984A1", "about": "“ANIONIC SURFACTANTS LETHAL TO GRAM-POSITIVE BACTERIA” (priority 2007, published 2009)", "key": {"P. aeruginosa ATCC 15442": {"tested_on": "P. aeruginosa ATCC 15442", "conditions": "for CFU/mL of E. coli at 24 hours / CFU/mL of E. coli at 12 hours: exposed to P. aeruginosa, polyurethane, microscope slides", "description": "Escherichia coli ATCC 11229 (Culti-loops, Remel Europe, Dartford, Kent, UK) and Pseudomonas aeruginosa ATCC 15442 (Cuti-loops, Remel Europe, Dartford, Kent, UK) were selected as model Gram-negative organisms for the challenge testing of the antimicrobial coatings. Each bacterial strain was streaked for isolated colonies on Tryptic Soy Agar (TSA) plates (Difco, Becton Dickinson, Sparks, Md., U.S.A.) and incubated at 37° C. for 12 to 18 hours. Broth cultures were prepared by first picking 1-2 isolated colonies from TSA plates and inoculating 5 mL Tryptic Soy Broth (TSB; Difco, Becton Dickinson, Sparks, Md., U.S.A.) in a 16 mm test tube. This culture was grown in a shaking water bath at 150 RPM for 8 hours at 37° C. After the eight hours, 125 μL of this culture was added to 50 mL of TSB in a side-arm Klett flask and grown for approximately 8 hours in shaking water bath (150 RPM) at 37° C. The bacterial broths were grown to an A590 of 1.2-1.5, which correlated to approximately 10^9 CFU (colony forming units)/mL. 25 mL of this broth were transferred to a sterile 30 mL Oakridge tube and centrifuged at 12,000×g for 10 minutes at 4° C. (Sorval SS34 rotor) to pelletize the bacteria. The bacterial pellet was washed once and resuspended in 25 mL of phosphate buffer solution (PBS; BBL, FTA Hemaglutination Buffer, Becton Dickinson, Sparks, Md., U.S.A.). The suspension was diluted with PBS to achieve the target range of 10^5-10^6 CFU/mL and used to inoculate the slides containing antibacterial coatings.\nThe 10% substitution on this weight basis corresponds to substitution of one tenth of the total surfactant weight or to 3% of the total composition weight.\nThe second set of coatings was made on microscope slides and challenged with E. coli ATCC 11229 and P. aeruginosa ATCC 15442. In these coatings, the gradient levels of incorporated silver were: 0%, 0.02%, 0.05%, 0.1%, 0.2%, 0.5%, 1.0% and 2.0% of the 30% NaAOT control amount. […] These gradients were tested at three inoculation time points, 0 hours, 12 hours, and 24 hours, with the 0% silver and 0 hours slides as controls.\nThe bacterial cultures were prepared as described in Example 12. Once the slides were inoculated, those assigned to incubate for 12 hours or 24 hours were placed in a humidified chamber by placing the Petri dishes containing the slides on test tubes that had been taped to the bottom of a 9″×13″ Pyrex dish. These test tubes held the Petri dishes just above the bottom of the dish, into which about 500 mL of sterile water was added. The Pyrex dish was also sterilized via UV irradiation (at least 4 minutes of exposure) prior to each challenge to protect against contamination. The dish was then covered with plastic wrap and tin foil and incubated at room temperature (20° C. to 25° C.).\nAt each time point (0 hours, 12 hours, and 24 hours), 25 mL of sterile PBS was pipetted into the Petri dish completely submerging the glass slide coated with the antimicrobial polymer."}, "E. coli": {"tested_on": "E. coli", "conditions": "24 h contact time"}, "[1]": {"conditions": "0.061% weight w/w Ag in coating (first column 0.113)"}, "[2]": {"conditions": "0.122% weight w/w Ag in coating (first column 0.226)"}, "[3]": {"conditions": "[…] weight w/w Ag in coating (first column 0.0574)"}}, "note": "Where two headings read alike, the source gives them in different places."}
{"smiles": "CCCCC(CC)COC(=O)CC(C(=O)OCC(CC)CCCC)S(=O)(=O)[O-].[Ag+]", "note": "(stereo not drawn) [AgAOT]", "values": [{"measurement": "Overall silver level effective as bactericide", "setting": "P. aeruginosa ATCC 15442; 12 hours of exposure", "value": "0.06 % weight silver relative to coating weight"}, {"measurement": "Smallest level examined that appears effective at killing the P. aeruginosa", "setting": "P. aeruginosa ATCC 15442; 24 h exposure", "value": "0.0012 % weight Ag relative to overall coating weight"}, {"measurement": "Overall silver level effective as bactericide", "setting": "P. aeruginosa ATCC 15442; 24 hours of exposure", "value": "0.006 % weight silver relative to coating weight"}, {"measurement": "CFU/mL of E. coli at 24 hours", "setting": "P. aeruginosa ATCC 15442; 0.0061% weight w/w Ag in coating (first column 0.0113)", "value": "0, 0, 0 CFU/mL"}, {"measurement": "CFU/mL of E. coli at 12 hours", "setting": "P. aeruginosa ATCC 15442; [1]", "value": "0, 0, 0 CFU/mL"}, {"measurement": "CFU/mL of E. coli at 24 hours", "setting": "P. aeruginosa ATCC 15442; [1]", "value": "0, 0, 0 CFU/mL"}, {"measurement": "CFU/mL of E. coli at 12 hours", "setting": "P. aeruginosa ATCC 15442; [2]", "value": "0, 0, 0 CFU/mL"}, {"measurement": "CFU/mL of E. coli at 24 hours", "setting": "P. aeruginosa ATCC 15442; [2]", "value": "0, 0, 0 CFU/mL"}, {"measurement": "CFU/mL of E. coli at 24 hours", "setting": "P. aeruginosa ATCC 15442; […] weight w/w Ag in coating (first column 0.00230)", "value": "0, 0, 0 CFU/mL"}, {"measurement": "CFU/mL of E. coli at 12 hours", "setting": "P. aeruginosa ATCC 15442; [3]", "value": "0, 0, 0 CFU/mL"}, {"measurement": "CFU/mL of E. coli at 24 hours", "setting": "P. aeruginosa ATCC 15442; [3]", "value": "0, 0, 0 CFU/mL"}, {"measurement": "E. coli growth on PU composition", "setting": "E. coli; 0.01 weight % Ag in PU composition", "value": "+"}, {"measurement": "E. coli growth on PU composition", "setting": "E. coli; 0.03 weight % Ag in PU composition", "value": "+"}, {"measurement": "E. coli growth on PU composition", "setting": "E. coli; 0.10 weight % Ag in PU composition", "value": "+"}, {"measurement": "E. coli growth on PU composition", "setting": "E. coli; 0.30 weight % Ag in PU composition", "value": "−"}, {"measurement": "E. coli growth on PU composition", "setting": "E. coli; 1.0 weight % Ag in PU composition", "value": "−"}, {"measurement": "E. coli growth on PU composition", "setting": "E. coli; 3.0 weight % Ag in PU composition", "value": "−"}, {"measurement": "Silver level providing complete inhibition", "setting": "E. coli; PU composition", "value": 0.30, "unit": "% w/w silver"}]}
